Laboratory results: US20260021181A1, “CHIMERIC COSTIMULATORY RECEPTORS, CHEMOKINE RECEPTORS, AND THE USE OF SAME IN CELLULAR IMMUNOTHERAPIES” (Iovance Biotherapeutics, Inc., priority 2022, published 2026)
Values belong to the molecule of their own block, whether it stands above or below them.

Assays:
TIL [1] = test: Cytokine expression of TILs after overnight anti-CD3/CD28 bead stimulation; format: cell-based
From the text: Control or decitabine-treated cryopreserved TILs were thawed and stained for flow cytometry analysis.

TIL [2] = test: AKT inhibitor (ipatasertib) added during ex vivo TIL expansion: expansion, viability, phenotype; format: cell-based
Experimental: Patient tumors from different indications were received, fragmented, and subjected to an expansion protocol for TIL manufacturing. Different doses (0.3 μM and 1 μM) of the pan-AKT inhibitor ipatasertib were added to the culture during ex vivo expansion. The expansion potential, as well as the phenotypic and functional characteristics were evaluated on the final TIL product. Eight tumors, including tumors from melanoma, NSCLC, head and neck cancer, ovarian cancer, and breast cancer, were used in combination with the Gen 2 process. […] Expansion, viability and T cell distribution in control and AKT inhibitor-treated TILs are shown. TILs were left untreated or treated with increasing concentrations of the pan-AKT inhibitor ipatasertib. Treatment was added either during the pre-REP and REP (blue bars) or during the REP stage only (purple bars). Fold expansion and viability of TIL at the end of the 22-day expansion process are shown. Frequency of CD8^+, CD4^+ and CD4^+ (Foxp3^+) cells after the expansion process on cryopreserved cells are also shown.

PD-L1 [3] = target: PD-L1 (Homo sapiens, UniProt Q9NZQ7); test: Hek-IL-18 SEAP reporter assay of CCR8 and CCR8.2 stimulated with PD-L1; format: cell-based; conditions: 650 nm, IL-18 standard
Experimental: The biological function of the CCR constructs was tested with Hek-IL-18 SEAP reporter lines. CCR8 and CCR8.2 transduced HekIL-18 reporter cells (5×10^4) were stimulated with the indicated concentration of PD-L1 (His tagged) in the presence of anti-His antibody (antibody:protein ratio=2:1; e.g., for 5 μg/mL PD-L1, add 10 μg/mL anti-His antibody). After 24 hours, supernatants were harvested, and SEAP level was determined with a spectrophotometer at 650 nm after adding Quanti-blue solution. CCR12 and CCR12.2 transduced HekIL-18 reporter cells (5×10^4) were stimulated with the indicated concentration of TROP-2 (His tagged) in the presence of anti-His antibody (antibody:protein ratio=2:1). After 24 hours, supernatants were harvested, and SEAP level was determined with a spectrophotometer at 650 nm after adding Quanti-blue solution.

[4] = target: T1, human PD-L1 on hPD-L1 Raji cells (human, UniProt Q9NZQ7 19-290); test: flow cytometry on hPD-L1 Raji cells, titration in the presence of the other antibody
T1 construct: whole, on cells

PD-L1 [5] = target: T2, PD-L1 (human, UniProt Q9NZQ7 19-238, limits assumed); test: EC50 of anti-PD-L1 antibody clone; assay not given
T2 construct: also called hPD-L1; CD274
T2 sequence (Q9NZQ7 19-238 limits assumed): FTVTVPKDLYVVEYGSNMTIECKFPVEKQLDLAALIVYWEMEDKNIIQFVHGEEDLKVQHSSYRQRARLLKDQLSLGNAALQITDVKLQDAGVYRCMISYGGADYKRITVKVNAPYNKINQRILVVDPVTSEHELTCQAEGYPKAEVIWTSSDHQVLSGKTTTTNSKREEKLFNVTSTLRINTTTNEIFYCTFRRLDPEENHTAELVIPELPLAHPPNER

T1 sequence (Q9NZQ7 19-290): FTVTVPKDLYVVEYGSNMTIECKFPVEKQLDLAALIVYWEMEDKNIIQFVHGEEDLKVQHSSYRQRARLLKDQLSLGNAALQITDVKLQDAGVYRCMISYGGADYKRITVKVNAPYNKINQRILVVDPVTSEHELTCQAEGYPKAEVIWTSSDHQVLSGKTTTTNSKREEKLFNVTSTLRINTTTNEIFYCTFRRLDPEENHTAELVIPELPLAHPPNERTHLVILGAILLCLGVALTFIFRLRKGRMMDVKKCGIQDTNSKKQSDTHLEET
Chain of PD-L1 (Homo sapiens, UniProt Q9NZQ7) (Q9NZQ7 19-290): as above

Molecule: CC(C)NC[C@@H](C(=O)N1CCN(c2ncnc3c2[C@H](C)C[C@H]3O)CC1)c1ccc(Cl)cc1 [ipatasertib]
frequency of IFNγ+TNFα+CD8+ T cells (TIL [1]): increase | cytokine output following stimulation (TIL [1]; 1 μM at pre-REP and REP, anti-CD3/CD28 beads overnight, bead-to-cell ratio 1:5): higher cytokine output | IL-7R and CXCR3 expression on CD8+ TILs (TIL [2]): increase | TOX expression following stimulation (TIL [2]): lower | frequency of CD8+ TEMRA cells (TIL [2]): increase | frequency of less differentiated CD8+CD69−CD39− T cells on CD8+ and CD4+ TILs (TIL [2]): increases | expansion and viability of TILs relative to controls (TIL [2]; 1 μM dose): equivalent | expression of CD38 and transcription factors T-bet and TOX in CD39− CD69− cells (TIL [2]; 1 μM dose): reduced expression | population of less differentiated CD39− CD69− cells (TIL [2]; 1 μM dose): doubled | T cell ratios (CD8+, CD4+, CD4+ Foxp3+) (TIL [2]; after the expansion process): without affecting | TIL expansion and viability (TIL [2]; pre-REP and REP or REP only, end of 22-day expansion): maintains

Molecule: IL-18: IL-18 standard in Hek-IL-18 SEAP reporter assay
IL-18 stimulation equivalent to an OD value of 0.5 (PD-L1 [3]): about 3.175 pg/mL

B2: 38A1-IgG4-HA (antibody)
chain: EVQLVESGGGLVQPGGSLRLSCAASGFTFSNYAMSWVRQAPGKGLEWVSTISGSGGTTYYADSVKGRFTISRDNSKNTLYLQMNSLRVEDTAVYYCAKDWFRSSSPDAFDIWGQGTTVTVSAGGGGSGGGGSGGGGSGAPSYVLTQPPSVSVAPGQTARITCGGNNIGRKIVHWYQQRPGQAPVLVIYYDTDRPAGIPERFSGSNSGNMATLTISTVGAGDEADYYCQVWDTGSDHVVFGGGTKLTVL
EC50 (PD-L1 [5]): 0.404 nM

B3: 19H9-IgG4-Flag (antibody)
chain: QVQLQESGGGLVKPGGSLRLSCAASGFTFSSYSMNWVRQAPGKGLEWVSGINTAGDTHYPESVKGRFTISRDNARNSLNLQMNSLRAEDTAVYYCVRERVEREYSGYDAFDIWGQGTTVTVSAGGGGSGGGGSGGGGSGAPNFMLTQPHSVSESLGKTVTISCTGSSGSIARKFVQWYQQRPGSSPTTVIYENNQRPSGVSDRFSGSIGSSSNSASLTISGLKTEDEADYYCQSYDSSNVVFGGGTKVTVL
EC50 (PD-L1 [5]): 0.125 nM

Other lines, results leading:

binding result [4]: binds
B1: 38A1-IgG4-HA (antibody)
chain: EVQLVESGGGLVQPGGSLRLSCAASGFTFSNYAMSWVRQAPGKGLEWVSTISGSGGTTYYADSVKGRFTISRDNSKNTLYLQMNSLRVEDTAVYYCAKDWFRSSSPDAFDIWGQGTTVTVSAGGGGSGGGGSGGGGSGAPSYVLTQPPSVSVAPGQTARITCGGNNIGRKIVHWYQQRPGQAPVLVIYYDTDRPAGIPERFSGSNSGNMATLTISTVGAGDEADYYCQVWDTGSDHVVFGGGTKLTVL
notes: The order of the parts and the format (scFv-IgG4 Fc-HA) of the tested protein are not spelled out; Detected with anti-HA-APC; also called anti-PD-L1 Ab clone 38A1-IgG4-HA; scFv-Fc antibody 38A1; not shown: IgG4 part, known only from the name 38A1-IgG4-HA; HA tag

binding result [4]: binds
B4: 19H9-IgG4-Flag (antibody)
chain: QVQLQESGGGLVKPGGSLRLSCAASGFTFSSYSMNWVRQAPGKGLEWVSGINTAGDTHYPESVKGRFTISRDNARNSLNLQMNSLRAEDTAVYYCVRERVEREYSGYDAFDIWGQGTTVTVSAGGGGSGGGGSGGGGSGAPNFMLTQPHSVSESLGKTVTISCTGSSGSIARKFVQWYQQRPGSSPTTVIYENNQRPSGVSDRFSGSIGSSSNSASLTISGLKTEDEADYYCQSYDSSNVVFGGGTKVTVL
notes: The order of the parts and the format of the tested protein are not spelled out; Detected with anti-Flag-AF488; also called 19H-IgG4-Flag; scFv-Fc antibody 19H9; not shown: IgG4 part, known only from the name 19H9-IgG4-Flag; Flag tag
